Test results taken from BindingDB's records for patent US12065407 (Plex Pharmaceuticals, 2024).

Legend:
[1] = biological target: Peptidyl-prolyl cis-trans isomerase FKBP1A (Homo sapiens, UniProt P62942); assay: Ki Estimation
[2] = biological target: T1, Peptidyl-prolyl cis-trans isomerase FKBP4 (Homo sapiens, UniProt Q02790); assay: Ki Estimation
T1 sequence (Q02790 whole entry): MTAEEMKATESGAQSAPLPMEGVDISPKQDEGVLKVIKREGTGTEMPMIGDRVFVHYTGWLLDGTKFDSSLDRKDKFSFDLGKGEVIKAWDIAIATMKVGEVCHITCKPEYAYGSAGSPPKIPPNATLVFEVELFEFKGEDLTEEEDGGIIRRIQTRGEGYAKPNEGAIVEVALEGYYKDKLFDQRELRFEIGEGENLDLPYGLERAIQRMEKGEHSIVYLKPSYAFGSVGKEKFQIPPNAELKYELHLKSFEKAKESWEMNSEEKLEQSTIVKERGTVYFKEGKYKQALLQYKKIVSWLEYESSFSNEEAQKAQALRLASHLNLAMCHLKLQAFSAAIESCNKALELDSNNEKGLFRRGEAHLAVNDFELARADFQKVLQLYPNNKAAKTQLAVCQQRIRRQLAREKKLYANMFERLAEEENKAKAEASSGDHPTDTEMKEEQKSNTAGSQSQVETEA

Peptidyl-prolyl cis-trans isomerase FKBP1A, sequence (P62942 whole entry): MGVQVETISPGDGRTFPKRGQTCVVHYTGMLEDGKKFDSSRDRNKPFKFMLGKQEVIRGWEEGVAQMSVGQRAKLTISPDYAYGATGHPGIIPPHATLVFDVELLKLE

| Structure (SMILES) | Ki [1] | Ki [2] |
| --- | --- | --- |
| Cn1c(/C=C/c2ccc(Cl)cc2)nc2ccccc21 [US12065407, ID CAP01509] | > 10 µM | > 10 µM |
| Fc1ccccc1Cn1c(/C=C/c2ccccc2)nc2ccccc21 [US12065407, ID CAP01547] | > 10 µM | > 15 µM |
| C(=C\c1nc2ccccc2n1Cc1ccccc1)/c1ccccc1 [US12065407, ID CAP01548] | > 15 µM | > 20 µM |
| CCCn1c(/C=C/c2ccccc2)nc2ccccc21 [US12065407, ID CAP01549] | > 20 µM | > 25 µM |
| CCCCn1c(/C=C/c2ccccc2)nc2ccccc21 [US12065407, ID CAP01554] | > 10 µM | > 15 µM |
| CC(C)Cn1c(/C=C/c2ccccc2)nc2ccccc21 [US12065407, ID CAP01555] | > 15 µM | > 20 µM |
| O=C(N[C@@H](Cc1ccc(Cl)cc1)C(=O)NCCCc1ccccc1)C1C2CC3CC(C2)CC1C3 (stereo partly specified) [US12065407, ID CAP01685] | 32.5 µM | – |
| O=C(N[C@H](Cc1ccc(Cl)cc1)C(=O)NCCCc1ccccc1)c1ccc2ccccc2c1 [US12065407, ID CAP01691] | > 50 µM | – |
| O=C(N[C@@H](Cc1ccc(Cl)cc1)C(=O)NCCCc1ccccc1)c1ccc(F)cc1 [US12065407, ID CAP01719] | > 25 µM | > 25 µM |
| O=C(N[C@@H](Cc1ccc(Cl)cc1)C(=O)NCCCc1ccccc1)c1nc2ccccc2[nH]1 [US12065407, ID CAP01721] | – | > 50 µM |
| O=C(N[C@@H](Cc1ccc(F)cc1)C(=O)NCCCc1ccccc1)c1ccc2ccccc2c1 [US12065407, ID CAP01740] | > 40 µM | > 40 µM |
| CCC(C)(C)C(=O)N[C@H](C(=O)OCCCc1cccnc1)C1CCCC1 [US12065407, ID Tbl1.1] | > 25 µM | > 25 µM |
